# Measured values taken from patent US20260001876A1, “Compounds and Their Use as PDE4 Activators” (Mironid Limited, priority 2022, published 2026).
# Columns and labels:
# [1] = test system: m-IMCD3 cells expressing PDE4 long forms; assay: cAMP levels in assay media of PGE2-stimulated m-IMCD3 3D cell culture; type: cell-based; settings: Mus musculus, mIMCD3, compared to 100% for (DMSO + PGE2), read-out: cAMP level (% of PGE2-stimulated); for activity at 3 µM: 3 μM test compound
# Description: (§1) HEK 293 and MDCK cells (Public Health England, Cell Culture Collections) were maintained in Dulbecco's Modified Eagle's Medium (DMEM) supplemented with 10% (v/v) fetal bovine serum (FBS) (Seralab), 2 mM L-glutamine and 100 U/mL penicillin streptomycin cocktail (ThermoFisher); termed complete media. Clonal HEK 293 cell lines were maintained in complete media supplemented with 0.6 mg/ml G418 (Enzo Life Sciences). Mouse inner medullary collecting duct (m-IMCD3) cells [American Type Culture Collection (ATCC)] were maintained in media consisting of DMEM/Hams F-12 50/50 Mix (DMEM F12; Corning) supplemented with penicillin streptomycin cocktail (100 U/mL) and FBS (10% v/v) (DMEM F12-10% FBS).
# Experiment 2: Reduction of CAMP Levels in m-IMCD3 Cell Culture Treated with PDE4 Long Form Activators
# Activation of intracellular PDE4 long forms leads to a reduction of both intracellular CAMP and externalised cAMP (Omar et al., PNAS 116:13320-13329, 2019). This reduction may be measured in the cell culture media supernatant of 3D cystic cell cultures, such as in the m-IMCD3 cell cyst suppression assay described in Experiment 3.
# Following the completion of the m-IMCD3 cell cyst suppression assay (Experiment 3), the CAMP levels in the assay media from individual or pooled assay wells was measured using a CAMP ELISA kit (Enzo Life Sciences) or a LANCE Ultra CAMP kit (PerkinElmer) according to the manufacturer's instructions.
# Treatment with PDE4 long form activators reduced CAMP levels in PGE2-stimulated m-IMCD3 cell culture.
# [2] = test system: m-IMCD3 cells; assay: Inhibition of PGE2-stimulated in vitro cyst formation in m-IMCD3 cells (3D culture); type: cell-based; settings: Mus musculus, mIMCD3, 144 h, mean cyst area, 100% for (DMSO + PGE2) and 0% for DMSO control, 6 days of culture; for activity at 3 µM: read-out: % Cyst area* after incubation with 3 μM test compound; for activity at 10 µM: read-out: % Cyst area* after incubation with 10 μM test compound
# In short: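 m-IMCD3 cells in a 3D collagen I/Matrigel matrix at 37 °C, 5% CO2 were dosed 18–24 h after plating with compound (0.1% DMSO) plus 100 nM PGE2, in quadruplicate, replenished after 2–3 days. On day 6, z-stack imaging measured mean cyst area, normalised to DMSO+PGE2 (100%) and DMSO alone (0%).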
# [3] = biological target: T1, full-length human PDE4D5 (long isoform) (Homo sapiens, UniProt Q08499); assay: PDE assay ([3H]cAMP hydrolysis) with PDE4D5 cell lysate cytosol fraction; type: biochemical; settings: 100 μM test compound; mean % increase in counts over basal activity
# T1 construct: cell lines that stably expressed the full-length human PDE4 long isoforms and the full length human PDE4B2 short isoform; made in house; cytosol fraction of the cell lysate, not purified
# Description: as §1
# (§2) Experiment 1: Measurement of Modulation of Enzyme Activity by PDE4 Long Form Activators of the Present Invention Using Full-Length Human PDE4 Isoforms; Long Forms PDE4D5, PDE4C3, PDE4B1 and Short Form PDE4B2
# (§3) (Marchmont, R. J. and Houslay, M. D. Biochem. J. 187:381-92, 1980)
# (§4) Exogenous expression of long form PDE4 enzymes and stable cell line generation For transient transfection of exogenous PDE4 long isoforms, HEK 293 cells were transfected with pcDNA3.1 or pDEST™ PDE4 expression vectors using Lipofectamine LTX/Plus reagent (Invitrogen) as outlined by the manufacturer.
# (§5) Where stable cell lines were generated the clonal isolates were expanded to obtain cell lines that stably expressed the full-length human PDE4 long isoforms and the full length human PDE4B2 short isoform. These were called the HEK-PDE4D5, HEK-PDE4B1 and HEK-PDE4B2 cell lines, respectively.
# (§6) Lysate Preparation (Using PDE4D5 as a Typical Example)
# (§7) HEK-PDE4D5 cells were seeded out in 100 mm plates and incubated at 37° C. in an atmosphere of 5% CO2, 95% air. Cell lysates were prepared using KHEM buffer [50 mM KCl, 10 mM EGTA, 50 mM HEPES (pH 7.2), 1.92 mM MgCl2].
# (§8) To prepare the cell lysates, the 100 mm plates containing the cells were placed on ice and washed with ice-cold PBS (phosphate buffered saline, pH 7.4). KHEM buffer (500 μL) was added to the cells. Cells were then scraped off the plate and triturated using a needle (BD Microlance™ 0.8, 40 mm). The lysed cells were then centrifuged at 2000 rpm for 10 minutes to remove cell debris and the supernatant (cell lysate containing recombinant PDE4D5) was transferred to a fresh tube and kept on ice.
# (§9) Cytosol Fraction Preparation (Using PDE4D5 as a Typical Example)
# (§10) The cell lysate containing recombinant PDE4D5 was transferred into a centrifuge tube and placed into an ultracentrifuge (BECKMAN COULTER) and spun at high speed (100,000g) for 30 minutes at 4° C. The cytosol fraction was then collected and its protein amount determined using a BCA protein assay.
# (§11) PDE Assay—(Using PDE4D5 as a Typical Example)
# (§12) PDE assays were performed in thin-walled V-bottomed 96-well plates. […]
# [4] = biological target: T2, full-length human PDE4B2 (short isoform) (Homo sapiens, UniProt Q07343); assay: PDE assay ([3H]cAMP hydrolysis) with PDE4B2 cell lysate cytosol fraction; type: biochemical; settings: 100 μM test compound; mean % increase in counts over basal activity
# T2 construct: the full length human PDE4B2 short isoform; made in house; cytosol fraction of the cell lysate, not purified
# Description: as §1, §2, §3, §4, §5, §6, §7, §8, §9, §10, §11, §12
# T2 sequence (Q07343 1-564 isoform Q07343-2): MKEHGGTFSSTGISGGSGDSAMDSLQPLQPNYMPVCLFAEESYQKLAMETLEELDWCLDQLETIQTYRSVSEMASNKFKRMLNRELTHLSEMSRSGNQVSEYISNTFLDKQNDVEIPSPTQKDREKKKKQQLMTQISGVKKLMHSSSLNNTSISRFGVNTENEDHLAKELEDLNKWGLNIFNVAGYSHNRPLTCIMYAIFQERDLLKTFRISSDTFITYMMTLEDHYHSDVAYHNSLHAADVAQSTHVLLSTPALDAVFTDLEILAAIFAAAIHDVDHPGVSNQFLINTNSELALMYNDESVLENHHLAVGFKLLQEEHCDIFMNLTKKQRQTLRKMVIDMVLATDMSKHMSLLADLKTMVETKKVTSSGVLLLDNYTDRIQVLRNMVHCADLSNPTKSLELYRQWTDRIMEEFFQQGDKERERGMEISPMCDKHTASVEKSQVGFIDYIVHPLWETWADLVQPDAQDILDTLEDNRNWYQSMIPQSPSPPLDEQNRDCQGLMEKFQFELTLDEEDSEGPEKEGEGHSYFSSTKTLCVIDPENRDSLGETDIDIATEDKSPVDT
# T1 sequence (Q08499 1-745 isoform Q08499-6): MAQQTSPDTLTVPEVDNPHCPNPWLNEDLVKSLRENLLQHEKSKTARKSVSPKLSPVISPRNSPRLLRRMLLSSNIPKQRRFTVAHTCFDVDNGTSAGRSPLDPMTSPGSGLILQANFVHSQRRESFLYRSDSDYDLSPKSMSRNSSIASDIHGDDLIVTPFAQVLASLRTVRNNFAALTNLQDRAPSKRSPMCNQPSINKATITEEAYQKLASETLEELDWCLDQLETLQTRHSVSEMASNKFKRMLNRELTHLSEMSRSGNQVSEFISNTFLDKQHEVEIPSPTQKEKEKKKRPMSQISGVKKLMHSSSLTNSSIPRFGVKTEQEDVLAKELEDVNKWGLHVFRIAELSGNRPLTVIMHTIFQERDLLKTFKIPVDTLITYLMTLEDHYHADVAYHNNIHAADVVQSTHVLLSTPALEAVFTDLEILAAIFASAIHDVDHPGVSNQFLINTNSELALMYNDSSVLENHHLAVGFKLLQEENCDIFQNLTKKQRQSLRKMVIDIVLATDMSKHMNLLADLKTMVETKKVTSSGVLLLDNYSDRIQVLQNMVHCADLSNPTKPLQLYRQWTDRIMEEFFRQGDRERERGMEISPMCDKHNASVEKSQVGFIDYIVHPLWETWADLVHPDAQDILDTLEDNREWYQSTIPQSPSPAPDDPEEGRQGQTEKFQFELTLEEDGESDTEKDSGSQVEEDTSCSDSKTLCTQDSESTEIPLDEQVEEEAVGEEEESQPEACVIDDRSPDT
Structure (SMILES),activity at 3 µM [1] [%],activity at 3 µM [2] [%],activity at 10 µM [2] [%],also measured
"COc1ccccc1C(=O)N1CCc2nc(N3C4CCC3CNC4)ccc2C1 [Example 121, (2-(3,8-diazabicyclo[3.2.1]octan-8-yl)-7,8-dihydro-1,6-naphthyridin-6(5H)-yl)(2-methoxyphenyl)methanone]",44,8,–,–
"O=C(CC1CCCC1)N1CCc2nc(C3CCNCC3)ccc2C1 [Example 114, 2-cyclopentyl-1-(2-(piperidin-4-yl)-7,8-dihydro-1,6-naphthyridin-6(5H)-yl)ethan-1-one]",47,–,-2,–
"O=C(CC1CCCC1)N1CCc2nc(N3CCN4CCC[C@H]4C3)ccc2C1 [Example 113, (S)-2-cyclopentyl-1-(2-(hexahydropyrrolo[1,2-a]pyrazin-2 (1H)-yl)-7,8-dihydro-1,6-naphthyridin-6(5H)-yl)ethan-1-one]",63,–,-4,–
"O=C(CC1CCCC1)N1CCc2nc(N3CC4CCCC(C3)N4)ccc2C1 [Example 152, 1-(2-(3,9-diazabicyclo[3.3.1]nonan-3-yl)-7,8-dihydro-1,6-naphthyridin-6(5H)-yl)-2-cyclopentylethan-1-one]",41,-6,–,–
"O=C(CC1CCCC1)N1CCc2nc(C3CCN(CCO)CC3)ccc2C1 [Example 115, 2-cyclopentyl-1-(2-(1-(2-hydroxyethyl)piperidin-4-yl)-7,8-dihydro-1,6-naphthyridin-6(5H)-yl)ethan-1-one]",32,–,-3,–
"O=S(=O)(Cc1ccc(F)cc1)N1CCc2nc(N3CCNCC3)ccc2C1 [Example 160, 6-((4-fluorobenzyl)sulfonyl)-2-(piperazin-1-yl)-5,6,7,8-tetrahydro-1,6-naphthyridine]",35,-4,–,–
"O=C(N[C@H]1CCOc2ccccc21)N1CCc2nc(N3C4CCC3CNC4)ccc2C1 [Example 166, 2-(3,8-diazabicyclo[3.2.1]octan-8-yl)-N—((S)-chroman-4-yl)-7,8-dihydro-1,6-naphthyridine-6(5H)-carboxamide]",35,3,–,–
"O=C(CC1CCCC1)N1CCc2nc(N3C4CCCC3CNC4)ccc2C1 [Example 151, 1-(2-(3,9-diazabicyclo[3.3.1]nonan-9-yl)-7,8-dihydro-1,6-naphthyridin-6(5H)-yl)-2-cyclopentylethan-1-one]",51,-8,–,–
"N#Cc1ccc(CC(=O)N2CCc3nc(N4C5CCC4CNC5)ncc3C2)cc1 [Example 136, 4-(2-(2-(3,8-diazabicyclo[3.2.1]octan-8-yl)-7,8-dihydropyrido[4,3-d]pyrimidin-6(5H)-yl)-2-oxoethyl)benzonitrile]",38,1,–,–
"CC(C)(C)CC(=O)N1CCc2nc(N3C4CCC3CNC4)ccc2C1 [Example 42, 1-(2-(3,8-diazabicyclo[3.2.1]octan-8-yl)-7,8-dihydro-1,6-naphthyridin-6(5H)-yl)-3,3-dimethylbutan-1-one]",28,–,0,–
"O=C(CC1CCC(F)(F)CC1)N1CCc2nc(N3C4CCC3CNC4)ccc2C1 [Example 40, 1-(2-(3,8-diazabicyclo[3.2.1]octan-8-yl)-7,8-dihydro-1,6-naphthyridin-6(5H)-yl)-2-(4,4-difluorocyclohexyl)ethan-1-one]",–,–,0,activity at 10 µM ([1]; 10 μM test compound): 43%
"O=C(Cc1ccc(F)cc1)N1CCc2nc(N3C4CCC3CNC4)ncc2C1 [Example 139, 1-(2-(3,8-diazabicyclo[3.2.1]octan-8-yl)-7,8-dihydropyrido[4,3-d]pyrimidin-6(5H)-yl)-2-(4-fluorophenyl)ethan-1-one]",–,1,–,% increase in PDE4D5 (long isoform) activity at 100 μM* (%) [3]: 28%; % increase in PDE4B2 (short isoform) activity at 100 μM* [4]: −1%
"CN1CC2CCC(C1)N2c1ccc2c(n1)CN(C(=O)NC1CCC(F)(F)CC1)C2 [Example 91, N-(4,4-difluorocyclohexyl)-2-(3-methyl-3,8-diazabicyclo[3.2.1]octan-8-yl)-5,7-dihydro-6H-pyrrolo[3,4-b]pyridine-6-carboxamide]",31,–,-5,–
"Cc1ccccc1C(=O)N1CCc2nc(N3C4CCC3CNC4)ccc2C1 [Example 122, (2-(3,8-diazabicyclo[3.2.1]octan-8-yl)-7,8-dihydro-1,6-naphthyridin-6(5H)-yl)(o-tolyl)methanone]",66,-1,–,–
"O=C(CC1CCCC1)N1CCc2nc(N3CCN4CCC[C@@H]4C3)ccc2C1 [Example 112, (R)-2-cyclopentyl-1-(2-(hexahydropyrrolo[1,2-a]pyrazin-2 (1H)-yl)-7,8-dihydro-1,6-naphthyridin-6(5H)-yl)ethan-1-one]",54,–,-6,–
"O=S(=O)(Cc1ccc(F)cc1)N1CCc2nc(N3C4CCC3CNC4)ccc2C1 [Example 158, 2-(3,8-diazabicyclo[3.2.1]octan-8-yl)-6-((4-fluorobenzyl)sulfonyl)-5,6,7,8-tetrahydro-1,6-naphthyridine]",46,5,–,–
"CCN1CC2CCC(C1)N2c1ccc2c(n1)CCN(S(=O)(=O)Cc1ccccc1)C2 [Example 163, 6-(benzylsulfonyl)-2-(3-ethyl-3,8-diazabicyclo[3.2.1]octan-8-yl)-5,6,7,8-tetrahydro-1,6-naphthyridine]",39,-1,–,–
